From patent US20210087206A1, “MACROCYCLIC KINASE INHIBITORS AND THEIR USE” (TURNING POINT THERAPEUTICS, INC., priority 2017, published 2021) come the findings set out here.

In general, IC50 refers to the concentration that gives 50% inhibition. A higher IC50 goes with weaker potency in that assay.

Common to all, as to assay: Cell proliferation assay (CellTiter-Glo)
Holding throughout (format): cell-based

One test has as its system KG-1 cell (OP2-FGFR1). The following applies: Homo sapiens, anti-cell proliferation, 72 hours. How it is done: (§1) Cell Lines and Cell Culture:
(§2) Colorectal cell line KM 12 (harboring endogenous TPM3-TRKA fusion gene) was obtained from NCI. Acute myelogenous cell line KG-1 (harboring endogenous OP2-FGFR1 fusion gene) were purchased from ATCC.
(§3) Cell Proliferation Assays:
(§4) Two thousand cells per well were seeded in 384 well white plate for 24 hrs, and then treated with compounds for 72 hours (37° C., 5% CO2). Cell proliferation was measured using CellTiter-Glo luciferase-based ATP detection assay (Promega) following the manufactures's protocol. IC50 determinations were performed using GraphPad Prism software (GraphPad, Inc., San Diego, Calif.).

The subject of another test is KM12 (TPM3-TRKA). The following applies: Homo sapiens, anti-cell proliferation, 72 hours. How it is done:
as §1, §2, §3, §4

The next test has as its target T1, BaF3 EML4-ALK (Homo sapiens, UniProt Q9UM73).
T1 construct: The EML4-ALK gene (variant 1) was synthesized at GenScript and cloned into pCDH-CMV-MCS-EF1-Puro plasmid (System Biosciences, Inc); fused on or other part: EML4 N-terminal part (variant 1: exons 1-13, with the coiled-coil that oligomerises the fusion) fused to the intracellular part of ALK, which contains the kinase domain; Q9HC35 (Echinoderm microtubule-associated protein-like 4)
The following applies: anti-cell proliferation, 72 hours. As for the experimental part: Cloning and Ba/F3 or NIH3T3 Stable Cell Line Creation
The EML4-ALK gene (variant 1) was synthesized at GenScript and cloned into pCDH-CMV-MCS-EF1-Puro plasmid (System Biosciences, Inc). Ba/F3-EML4-ALK wild type were generated by transducing Ba/F3 cells with lentivirus containing EML4-ALK wide type. Stable cell lines were selected by puromycin treatment, followed by IL-3 withdrawal. Briefly, 5×10^6 Ba/F3 cells were transduced with lentivirus supernatant in the presence of 8 μg/mL protamine sulfate. The transduced cells were subsequently selected with 1 μg/mL puromycin in the presence of IL3-containing medium RPMI1640, plus 10% FBS. After 10-12 days of selection, the surviving cells were further selected for IL3 independent growth.
as §3, §4

T1 sequence (Q9UM73 whole entry, stated change not applied, the tested form may be a part): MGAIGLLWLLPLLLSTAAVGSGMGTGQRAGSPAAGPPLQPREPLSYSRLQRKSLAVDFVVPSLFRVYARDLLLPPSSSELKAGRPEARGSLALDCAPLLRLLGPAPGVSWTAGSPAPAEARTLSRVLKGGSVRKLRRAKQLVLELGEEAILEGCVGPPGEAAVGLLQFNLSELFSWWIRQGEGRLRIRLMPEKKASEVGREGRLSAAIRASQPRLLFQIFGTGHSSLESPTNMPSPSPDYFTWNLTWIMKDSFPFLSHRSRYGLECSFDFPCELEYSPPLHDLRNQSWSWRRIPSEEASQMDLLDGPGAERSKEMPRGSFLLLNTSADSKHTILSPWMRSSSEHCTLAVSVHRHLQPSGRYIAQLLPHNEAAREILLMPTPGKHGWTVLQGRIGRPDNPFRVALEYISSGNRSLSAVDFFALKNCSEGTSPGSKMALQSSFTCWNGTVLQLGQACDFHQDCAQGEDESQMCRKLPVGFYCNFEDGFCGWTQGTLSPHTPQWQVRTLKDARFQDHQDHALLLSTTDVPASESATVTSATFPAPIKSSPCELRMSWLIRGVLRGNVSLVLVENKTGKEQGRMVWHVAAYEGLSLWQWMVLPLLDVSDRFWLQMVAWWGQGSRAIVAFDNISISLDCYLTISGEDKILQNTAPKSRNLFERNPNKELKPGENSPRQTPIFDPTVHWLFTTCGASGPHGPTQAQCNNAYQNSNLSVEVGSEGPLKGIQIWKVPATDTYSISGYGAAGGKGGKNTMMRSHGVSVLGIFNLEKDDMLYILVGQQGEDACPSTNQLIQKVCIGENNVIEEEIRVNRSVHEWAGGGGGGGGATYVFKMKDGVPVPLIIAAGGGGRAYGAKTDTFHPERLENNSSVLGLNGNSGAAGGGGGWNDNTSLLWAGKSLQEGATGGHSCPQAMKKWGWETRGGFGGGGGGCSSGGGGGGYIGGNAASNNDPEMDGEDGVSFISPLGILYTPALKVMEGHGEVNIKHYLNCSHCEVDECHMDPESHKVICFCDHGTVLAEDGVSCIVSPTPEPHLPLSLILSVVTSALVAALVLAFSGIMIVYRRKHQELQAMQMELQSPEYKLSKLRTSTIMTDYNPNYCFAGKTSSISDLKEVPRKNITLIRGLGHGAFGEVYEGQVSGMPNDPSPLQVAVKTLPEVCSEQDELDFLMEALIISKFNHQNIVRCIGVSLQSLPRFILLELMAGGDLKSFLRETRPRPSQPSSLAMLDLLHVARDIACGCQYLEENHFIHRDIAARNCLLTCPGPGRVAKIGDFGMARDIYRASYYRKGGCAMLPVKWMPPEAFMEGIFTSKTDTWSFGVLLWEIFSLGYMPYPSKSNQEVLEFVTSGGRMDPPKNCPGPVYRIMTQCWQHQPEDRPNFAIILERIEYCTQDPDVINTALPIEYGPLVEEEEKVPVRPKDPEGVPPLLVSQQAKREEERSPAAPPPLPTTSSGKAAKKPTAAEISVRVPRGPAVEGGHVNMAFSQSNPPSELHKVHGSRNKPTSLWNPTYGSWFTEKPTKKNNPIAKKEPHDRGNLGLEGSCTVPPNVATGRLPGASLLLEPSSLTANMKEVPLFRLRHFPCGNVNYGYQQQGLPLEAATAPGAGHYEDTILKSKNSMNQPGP

Take `C[C@@H]1COc2ncc(F)cc2CN2c3nc4c(cnn4cc3OC[C@H]2C2CC2)C(=O)N1` [Compound 25, (4R,13R)-4-cyclopropyl-8-fluoro-13-methyl-3,4,13,14-tetrahydro-6H-18,1-(metheno)[1,4]oxazino[3,4-i]pyrazolo[4,3-f]pyrido[3,2-l][1,4,8,10]oxatriazacyclotridecin-15(12H)-one]: the IC50 was 131 nM in the test on KG-1 cell (OP2-FGFR1), under 0.2 nM in the test with KM12 (TPM3-TRKA) and 89.1 nM against BaF3 EML4-ALK.
As to `C[C@H]1CNC(=O)c2cnn3cc4c(nc23)N(Cc2cc(F)cnc2O1)[C@H](C1CC1)CO4` [Compound 26, (4R,12S)-4-cyclopropyl-8-fluoro-12-methyl-3,4,13,14-tetrahydro-6H-18,1-(metheno)[1,4]oxazino-[3,4-i]pyrazolo[4,3-f]pyrido-[3,2-l]-[1,4,8,10]oxatriazacyclo-tridecin-15(12H)-one], the IC50 in the test with KG-1 cell (OP2-FGFR1) was 694 nM; with KM12 (TPM3-TRKA), under 0.2 nM; at BaF3 EML4-ALK it was 692 nM.
The matching figures for `C[C@H]1CNC(=O)c2cnn3cc4c(nc23)N(Cc2cc(F)cnc2O1)C1(CC1)CO4` [Compound 27, (12′S)-8′-fluoro-12′-methyl-3′H,6′H,12′H,13′H,14′H,15′H-spiro[cyclopropane-1,4′-[2,11]-dioxa[5,10,14,17,18,19]hexaaza-[18,1](metheno)[1,4]oxazino[3,4-i]pyrazolo[4,3-f]pyrido[3,2-l] [1,4,8,10]oxatriazacyclotridecin]-15′-one]: 3570 nM, under 0.2 nM and 604 nM.
The matching figures for `C[C@@H]1COc2ncc(F)cc2CN2c3nc4c(cnn4cc3OCC23CC3)C(=O)N1` [Compound 28, (13′R)-8′-fluoro-13′-methyl-3′H,6′H,12′H,14′H,15′H-spiro-[cyclopropane-1,4′-[2,11]dioxa-[5,10,14,17,18,19]hexaaza[18,1]-(metheno)[1,4]oxazino[3,4-i]-pyrazolo[4,3-f]pyrido[3,2-l] [1,4,8,10]oxatriazacyclotridecin]-15′-one]: 786 nM, under 0.2 nM and 180 nM.
The corresponding values for `C[C@@H]1COc2cn3ncc4c3nc2N(Cc2cc(F)cnc2OC[C@@H](C)NC4=O)C1` [Compound 29, (4S,14R)-9-fluoro-4,14-dimethyl-4,5,14,15-tetrahydro-3H,7H-19,1-(metheno)[1,4]oxazepino[3,4-i]-pyrazolo[4,3-f]pyrido[3,2-l] [1,4,8,10]oxatriazacyclotridecin-16(13H)-one] are 130 nM, 9.6 nM and 826 nM.
Turning to `C[C@@H]1COc2cn3ncc4c3nc2N(Cc2cc(F)cnc2O[C@@H](C)CNC4=O)C1` [Compound 30, (4S,13S)-9-fluoro-4,13-dimethyl-4,5,14,15-tetrahydro-3H,7H-19,1-(metheno)[1,4]oxazepino[3,4-i]-pyrazolo[4,3-f]pyrido[3,2-l] [1,4,8,10]oxatriazacyclotridecin-16(13H)-one], the figures for the concentration for half-maximal inhibition (IC50) in the test on KG-1 cell (OP2-FGFR1), in the test on KM12 (TPM3-TRKA) and against BaF3 EML4-ALK were 536 nM, 42 nM and 7380 nM, respectively.
Regarding `C[C@@H]1COc2cn3ncc4c3nc2N(Cc2cc(F)ccc2OC[C@@H](C)NC4=O)C1` [Compound 31, (4S,14R)-9-fluoro-4,14-dimethyl-4,5,14,15-tetrahydro-3H,7H-19,1-(metheno)[1,4]oxazepino[3,4-i]-pyrazolo[4,3-f][1,4,8,10]benzo-xatriazacyclotridecin-16(13H)-one], the concentration for half-maximal inhibition (IC50) in the test with KG-1 cell (OP2-FGFR1) was 779 nM; in the test on KM12 (TPM3-TRKA), under 0.2 nM; against BaF3 EML4-ALK, 1330 nM.
For the compound `C[C@@H]1CCOc2ncc(F)cc2CN2c3nc4c(cnn4cc3OC[C@H]2C)C(=O)N1` [Compound 32, (6R,16R)-12-fluoro-6,16-dimethyl-5,6,7,8,16,17-hexahydro-4H,14H-1,19-(metheno)[1,4]oxazino[4,3-e]pyrazolo[3,4-h]pyrido[2,3-b] [1,5,7,11]oxatriazacyclotetradecin-4-one], the IC50 with KG-1 cell (OP2-FGFR1) was 137 nM; with KM12 (TPM3-TRKA), under 0.2 nM; against BaF3 EML4-ALK, 74.6 nM.
The corresponding values for `C[C@@H]1COc2cn3ncc4c3nc2N1Cc1cc(F)cnc1OCCCNC4=O` [Compound 33, (16R)-12-fluoro-16-methyl-5,6,7,8,16,17-hexahydro-4H,14H-1,19-(metheno)[1,4]oxazino[4,3-e]pyrazolo[3,4-h]pyrido[2,3-b] [1,5,7,11]oxatriazacyclotetradecin-4-one] are 37.1 nM, under 0.2 nM and 58.4 nM.
`C[C@@H]1COc2cn3ncc4c3nc2N1Cc1cc(F)cnc1OCC1(CC1)NC4=O` [Compound 34, (4′R)-8′-fluoro-4′-methyl-3′H,4′H,6′H,12′H,14′H,15′H-spiro[cyclopropane-1,13′-[2,11]dioxa[5,10,14,17,18,19]hexaaza[18,1](metheno)[1,4]oxazino[3,4-i]pyrazolo[4,3-f]pyrido[3,2-l][1,4,8,10]oxatriazacyclotridecin]-15′-one]: the half-inhibitory concentration (IC50) in the test with KG-1 cell (OP2-FGFR1) was 12.5 nM; with KM12 (TPM3-TRKA), under 0.2 nM; on BaF3 EML4-ALK, 23.7 nM.
On to `C[C@H]1CNC(=O)c2cnn3cc4c(nc23)N(Cc2cc(F)cnc2OC1)[C@H](C)CO4` [Compound 35, (7S,16R)-12-fluoro-7,16-dimethyl-5,6,7,8,16,17-hexahydro-4H,14H-1,19-(metheno)[1,4]oxazino[4,3-e]pyrazolo[3,4-h]pyrido[2,3-b] [1,5,7,11]oxatriazacyclotetra-decin-4-one], for which the values for the IC50 with KG-1 cell (OP2-FGFR1), with KM12 (TPM3-TRKA) and at BaF3 EML4-ALK were 33.5 nM, under 0.2 nM and 48.2 nM, respectively.
In the case of `C[C@@H]1COc2cn3ncc4c3nc2N1Cc1cc(F)cnc1O[C@@H](C)CCNC4=O` [Compound 36, (8S,16R)-12-fluoro-8,16-dimethyl-5,6,7,8,16,17-hexahydro-4H,14H-1,19-(metheno)[1,4]oxazino[4,3-e]pyrazolo[3,4-h]pyrido[2,3-b] [1,5,7,11]oxatriazacyclotetra-decin-4-one], the concentration for half-maximal inhibition (IC50) with KG-1 cell (OP2-FGFR1) is 25.3 nM; in the test on KM12 (TPM3-TRKA) it was under 0.2 nM; against BaF3 EML4-ALK it was 60.9 nM.
Regarding `C[C@@H]1COc2cn3ncc4c3nc2N1Cc1cc(F)cnc1OCC(C)(C)NC4=O` [Compound 40, (4R)-8-fluoro-4,13,13-trimethyl-3,4,13,14-tetrahydro-6H-18,1-(metheno)[1,4]oxazino[3,4-i]-pyrazolo[4,3-f]pyrido[3,2-l] [1,4,8,10]oxatriazacyclotridecin-15(12H)-one], the 50% inhibitory concentration (IC50) is 0.2 nM in the test with KG-1 cell (OP2-FGFR1), under 0.2 nM with KM12 (TPM3-TRKA) and under 0.2 nM against BaF3 EML4-ALK.
Consider `C[C@@H]1COc2ncc(F)cc2CN2c3nc4c(cnn4cc3OC[C@H]2CC#N)C(=O)N1` [Compound 41, [(4R,13R)-8-fluoro-13-methyl-15-oxo-3,4,12,13,14,15-hexahydro-6H-18,1-(metheno)[1,4]oxazino[3,4-i]pyrazolo[4,3-f]pyrido[3,2-][1,4,8,10]oxatriazacyclotridecin-4-yl]acetonitrile], for which the values for the 50% inhibitory concentration (IC50) with KG-1 cell (OP2-FGFR1), with KM12 (TPM3-TRKA) and at BaF3 EML4-ALK were 611 nM, 0.5 nM and 1170 nM, respectively.
The corresponding values for `C=C1COc2cn3ncc4c3nc2N1Cc1cc(F)cnc1OC[C@@H](C)NC4=O` [Compound 42, (13R)-8-fluoro-13-methyl-4-methylidene-3,4,13,14-tetrahydro-6H-18,1-(metheno)[1,4]oxazino[3,4-i]pyrazolo[4,3-f]pyrido[3,2-1][1,4,8,10]oxatriazacyclotridecin-15(12H)-one] are 1230 nM, under 0.2 nM and 1200 nM.
Consider `C[C@@H]1COc2ncc(F)cc2CN2c3nc4c(cnn4cc3OC[C@H]2CN=[N+]=[N-])C(=O)N1` [Compound 43, (4R,13R)-4-(azidomethyl)-8-fluoro-13-methyl-3,4,13,14-tetrahydro-6H-18,1-(metheno)-[1,4]oxazino[3,4-i]pyrazolo[4,3-f]pyrido[3,2-l][1,4,8,10]oxatriaza-cyclotridecin-15(12H)-one], for which the figures for the IC50 in the test with KG-1 cell (OP2-FGFR1), in the test on KM12 (TPM3-TRKA) and against BaF3 EML4-ALK were 30.6 nM, 0.2 nM and 85 nM, respectively.
The corresponding values for `COC[C@@H]1COc2cn3ncc4c3nc2N1Cc1cc(F)cnc1OC[C@@H](C)NC4=O` [Compound 44, (4R,13R)-8-fluoro-4-(methoxymethyl)-13-methyl-3,4,13,14-tetrahydro-6H-18,1-(metheno)[1,4]oxazino[3,4-i]pyrazolo[4,3-f]pyrido[3,2-1][1,4,8,10]oxatriazacyclotridecin-15(12H)-one] are 168 nM, under 0.2 nM and 549 nM.
In the case of `C[C@@H]1COc2cn3ncc4c3nc2N1Cc1cc(F)cnc1OCC1(CCC1)NC4=O` [Compound 45, (4′R)-8′-fluoro-4′-methyl-3′H,4′H,6′H,12′H,14′H,15′H-spiro[cyclobutane-1,13′-[2,11]-dioxa[5,10,14,17,18,19]hexaaza-[18,1](metheno)[1,4]oxazino[3,4-i]pyrazolo[4,3-f]pyrido[3,2-l] [1,4,8,10]oxatriazacyclotridecin]-15′-one], the figures for the concentration for half-maximal inhibition (IC50) in the test with KG-1 cell (OP2-FGFR1), in the test on KM12 (TPM3-TRKA) and on BaF3 EML4-ALK were 5 nM, under 0.2 nM and 2.7 nM, respectively.
